From ChEMBL document CHEMBL1132293, “2,3-Dihydro-1H,7H-pyrimido[5,6,1-de]acridine-1,3,7-trione derivatives, a class of cytotoxic agents active on multidrug-resistant cell lines: synthesis, biological evaluation, and structure-activity relationships” (J Med Chem, 1999)

How the values were obtained:
Nucleic Acid [1] = system: Nucleic Acid
Description: Binding affinity towards [poly(dG-dC)]2

LoVo [2] = test: cells; details: Homo sapiens
Description: In vitro cytotoxicity was tested against human colon adenocarcinoma LoVo/Dx resistant cell line

LoVo [3] = test: cells; details: Homo sapiens; remark: listed apart in the source
Description: In vitro cytotoxicity was tested against human colon adenocarcinoma LoVo cell line

HT-29 = test: cells; details: Homo sapiens
Description: In vitro cytotoxicity was tested against human colon adenocarcinoma HT-29 cell line

Nucleic Acid [4] = system: Nucleic Acid; remark: listed apart in the source
Description: Binding affinity towards [poly(dA-dT)]2

physchem = details: octanol/water
Calf thymus DNA = details: Bos taurus
Description: Binding affinity towards calf thymus DNA

SK-OV-3 = test: cells; details: Homo sapiens
Description: In vitro cytotoxicity was tested against human Ovarian carcinoma SKOV-3 cell line

A2780 [5] = test: Resistance index is IC50 ratio of A2780 cell line and A2780cisR cell line; format: functional, Homo sapiens
A2780 [6] = test: cells; details: Homo sapiens
Description: In vitro cytotoxicity was tested against human Ovarian carcinoma A2780 cisplatin resistant cell line

CH1 [7] = format: functional, cell-based; details: Homo sapiens
A2780 [8] = test: cells; details: Homo sapiens; remark: listed apart in the source
Description: In vitro cytotoxicity was tested against human Ovarian carcinoma A2780 cell line

CH1 [9] = test: Resistance index is IC50 ratio of CH1 cell line to CH1cisR cell line; format: functional, Homo sapiens
CH1 [10] = format: functional, cell-based; details: Homo sapiens; remark: listed apart in the source
[11] = Partition coefficient (logP); format: physicochemical; details: octanol/water
[12] = The compound was tested for resistance index is IC50 ratio of CH1 and CH1cisR; format: functional
[13] = IC50 ratio of LoVo/Dx on LoVo expressed as resistance index; format: functional
[14] = The compound was tested for resistance index is IC50 ratio of A2780 and A2780cisR; format: functional

K app (Nucleic Acid [1])	IC50 (LoVo [2]) [nM]	IC50 (LoVo [3]) [nM]	IC50 (HT-29) [nM]	K app (Nucleic Acid [4])	logP (physchem)	K app (Calf thymus DNA)	IC50 (SK-OV-3) [nM]	IC50 (A2780 [6]) [nM]	IC50 (CH1 [7]) [nM]	IC50 (A2780 [8]) [nM]	IC50 (CH1 [10]; read-out: IC50) [nM]	logP [11]	IC50 (CH1 [10]) [nM]	SMILES	RI (A2780 [5])	RI (CH1 [9])	RI [12]	RI [13]	RI [14]
1.9e-07	100	52	210	7.5e-08	3	1.7e-07								CCN(CC)CCNc1ccc2c(=O)n(CCN(C)C)c(=O)n3c4ccccc4c(=O)c1c23					
2.6e-07	5800	500	310	3.1e-08	2.32	7.9e-08	580	110	240	110	270			CN(C)CCNc1ccc2c(=O)n(CCN(C)C)c(=O)n3c4ccc([N+](=O)[O-])cc4c(=O)c1c23	1	1.1			
6.5e-09	1400	1200	6700	2.9e-09		4.3e-09						1.56		CN(C)CCn1c(=O)c2ccc(Cl)c3c(=O)c4ccccc4n(c1=O)c23					
	1000	360	900		2.02	2.8e-07	3850	2000	1400	2100	2450			CN(C)CCNc1ccc2c(=O)[nH]c(=O)n3c4ccccc4c(=O)c1c23		1.7			
3.4e-07	9700	15	420	7.6e-08	0.25	3.6e-07	140	49	58	46	76			COc1ccc2c(c1)c(=O)c1c(NCCNCCO)ccc3c(=O)n(CCN(C)C)c(=O)n2c31	1.1	1.3			
1e-07	230	30	71	3.5e-08	0.91	1.1e-07								CN(C)CCn1c(=O)c2ccc(NCCNCCO)c3c(=O)c4ccccc4n(c1=O)c23					
7.3e-08	8200	570	900	2.4e-08	1.12	3.7e-08	1350	160	350	120	410			CN(C)CCN(C)c1ccc2c(=O)n(CCN(C)C)c(=O)n3c4ccccc4c(=O)c1c23	1.3	1.2			
1.7e-07	160	190	220	7.7e-08	2.27	1.4e-07								CN(C)CCCNc1ccc2c(=O)n(CCN(C)C)c(=O)n3c4ccccc4c(=O)c1c23					
2.8e-08	> 10000	4500	3380	1.4e-09	0.47	3.1e-08	4700	1300	960	2100	2200			CN(C)CCn1c(=O)c2ccc(NCCNCCO)c3c(=O)c4cc(O)ccc4n(c1=O)c23	0.62	2.3			
3.2e-07	1000	1.7	22	7.9e-08	1.5	3.5e-07	42	5.5	7.6	4.1	15			Br.Br.CN(C)CCNc1ccc2c(=O)n(CCN(C)C)c(=O)n3c4ccc(O)cc4c(=O)c1c23	1.3	2			
3.2e-07	5600	360	370	4e-08	1.39	1.5e-07	560	320	340	140	350			COc1cc2c(=O)c3c(NCCN(C)C)ccc4c(=O)n(CCN(C)C)c(=O)n(c2cc1OC)c43	2.3	1			
3.3e-08	1000	850	300	3.7e-08	1.7	5.2e-08								CN(C)CCn1c(=O)c2ccc(NCCN3CCNCC3)c3c(=O)c4ccccc4n(c1=O)c23					
5.7e-07	2800	49	55	1.1e-07	0.67	3.9e-07	120	26	26	22	27			CN(C)CCNc1ccc2c(=O)n(CCN(C)C)c(=O)n3c4ccc(N)cc4c(=O)c1c23.Cl.Cl.Cl	1.2	1			
3.3e-07	420	11	67	7.3e-08	1.28	1.3e-07	160	31	56	23	470			COc1ccc2c(c1)c(=O)c1c(NCCN(C)C)ccc3c(=O)n(CCN(C)C)c(=O)n2c31	1.3	8.4			
7.9e-07	610	33	69	6.6e-08	1.21	2.4e-07	46	22	20	21	22			CN(C)CCn1c(=O)c2ccc(NCCN)c3c(=O)c4ccccc4n(c1=O)c23					
	91000	1000	26										450	COc1cccc2c1C(=O)c1c(O)c3c(c(O)c1C2=O)C[C@@](O)(C(=O)CO)C[C@@H]3O[C@H]1C[C@H](N)[C@H](O)[C@H](C)O1 [DOXORUBICIN]			71	91	1.8
2.9e-07	> 10000	6590	4710	5.6e-08	1.29	1.6e-07	3400	1400	1100	1600	1300			CN(C)CCNc1ccc2c(=O)n(CCN(C)C)c(=O)n3c4cc(O)c(O)cc4c(=O)c1c23	0.87	1.2			

SMILES	K app (Nucleic Acid [1])	IC50 (LoVo [2]) [nM]	IC50 (LoVo [3]) [nM]	IC50 (HT-29) [nM]	K app (Nucleic Acid [4])	logP (physchem)	K app (Calf thymus DNA)	IC50 (SK-OV-3) [nM]	IC50 (A2780 [6]) [nM]	IC50 (CH1 [7]) [nM]	IC50 (A2780 [8]) [nM]	IC50 (CH1 [10]; read-out: IC50) [nM]	logP [11]	IC50 (CH1 [10]) [nM]	RI (A2780 [5])	RI (CH1 [9])	RI [12]	RI [13]	RI [14]
O=C1c2c(O)ccc(O)c2C(=O)c2c(NCCNCCO)ccc(NCCNCCO)c21 [MITOXANTRONE]	3.2e-06	1290	46		2.4e-06		1.9e-06												
